Results reported in patent US11857519B2, “Compounds and methods for the targeted degradation of enhancer of zeste homolog 2 polypeptide” (Arvinas Operations, Inc., priority 2016, dated 2024).

Target: T1, EZH2 (Homo sapiens, UniProt Q15910)
T1 construct: Protocol of the Cellular Assay of Target Protein Degradation (VCaP Cells, ELISA); endogenous in cells; host or cells: VCaP cells
Assay: Cellular assay of target protein degradation (VCaP cells, ELISA)
Format: cell-based
Conditions: 4 hours, protein degradation range at indicated concentration (relative to DMSO control)
Summary of the method: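 VCaP cells grown ≥3 days in RPMI with 5% CSS, then dosed with compounds in 0.1% DMSO for 4 h. Lysates analysed by sandwich ELISA for EZH2 with TMB readout at 450 nm, 562 nm used for background subtraction.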

T1 sequence (Q15910 whole entry): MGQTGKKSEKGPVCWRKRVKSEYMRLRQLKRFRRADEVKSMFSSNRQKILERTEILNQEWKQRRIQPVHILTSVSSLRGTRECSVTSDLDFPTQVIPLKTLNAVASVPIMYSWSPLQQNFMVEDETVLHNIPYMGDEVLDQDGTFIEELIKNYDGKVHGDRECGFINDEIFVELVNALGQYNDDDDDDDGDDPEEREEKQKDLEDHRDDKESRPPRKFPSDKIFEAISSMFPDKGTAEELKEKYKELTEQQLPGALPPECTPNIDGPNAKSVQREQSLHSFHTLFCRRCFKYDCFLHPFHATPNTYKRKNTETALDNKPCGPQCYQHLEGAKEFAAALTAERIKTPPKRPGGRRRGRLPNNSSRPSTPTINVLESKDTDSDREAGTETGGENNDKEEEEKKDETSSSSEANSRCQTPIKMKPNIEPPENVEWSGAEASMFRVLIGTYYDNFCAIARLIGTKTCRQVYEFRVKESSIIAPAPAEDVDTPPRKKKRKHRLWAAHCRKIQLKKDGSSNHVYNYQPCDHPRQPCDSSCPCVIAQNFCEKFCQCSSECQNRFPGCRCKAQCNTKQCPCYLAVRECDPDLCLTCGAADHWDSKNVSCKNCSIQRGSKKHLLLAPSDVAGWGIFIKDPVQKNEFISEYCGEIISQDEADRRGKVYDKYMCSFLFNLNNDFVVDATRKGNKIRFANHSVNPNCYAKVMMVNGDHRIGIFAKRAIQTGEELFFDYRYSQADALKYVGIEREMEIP
T1 sequence (O75530 whole entry partner): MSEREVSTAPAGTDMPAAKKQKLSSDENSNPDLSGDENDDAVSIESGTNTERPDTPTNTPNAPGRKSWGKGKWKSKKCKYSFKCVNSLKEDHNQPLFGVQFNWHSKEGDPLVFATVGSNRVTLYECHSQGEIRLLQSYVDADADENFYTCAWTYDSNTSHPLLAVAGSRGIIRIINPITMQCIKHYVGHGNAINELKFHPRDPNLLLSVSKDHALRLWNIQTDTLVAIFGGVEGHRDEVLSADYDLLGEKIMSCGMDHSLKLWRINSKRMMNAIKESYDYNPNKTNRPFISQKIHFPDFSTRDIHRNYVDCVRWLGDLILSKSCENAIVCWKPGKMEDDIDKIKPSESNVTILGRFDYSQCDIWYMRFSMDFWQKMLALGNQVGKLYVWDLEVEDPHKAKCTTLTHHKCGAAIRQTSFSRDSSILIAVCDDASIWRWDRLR
T1 sequence (Q15022 whole entry partner): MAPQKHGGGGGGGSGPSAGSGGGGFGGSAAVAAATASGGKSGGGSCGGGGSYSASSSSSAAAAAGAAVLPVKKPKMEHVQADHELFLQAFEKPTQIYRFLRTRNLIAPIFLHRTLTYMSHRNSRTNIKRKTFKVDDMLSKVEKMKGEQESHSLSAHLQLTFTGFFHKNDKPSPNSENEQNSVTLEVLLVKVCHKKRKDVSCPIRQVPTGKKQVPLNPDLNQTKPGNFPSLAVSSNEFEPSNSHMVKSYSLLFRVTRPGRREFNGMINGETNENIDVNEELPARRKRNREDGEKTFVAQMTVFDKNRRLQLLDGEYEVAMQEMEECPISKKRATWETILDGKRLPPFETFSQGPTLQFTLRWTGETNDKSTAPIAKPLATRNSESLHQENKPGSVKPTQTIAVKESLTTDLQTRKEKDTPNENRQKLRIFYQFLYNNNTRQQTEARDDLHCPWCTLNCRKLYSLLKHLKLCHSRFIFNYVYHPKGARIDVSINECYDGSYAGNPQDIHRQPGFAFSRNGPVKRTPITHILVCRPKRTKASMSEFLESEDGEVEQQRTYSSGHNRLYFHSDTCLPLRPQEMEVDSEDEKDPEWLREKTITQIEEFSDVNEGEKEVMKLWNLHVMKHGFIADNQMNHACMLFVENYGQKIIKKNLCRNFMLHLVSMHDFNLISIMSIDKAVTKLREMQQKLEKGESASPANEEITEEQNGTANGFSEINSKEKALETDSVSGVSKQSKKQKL

Structure (SMILES)	percent target protein degradation class
CCN(c1cc(-c2ccc(OCCCCOc3cc(-c4scnc4C)ccc3CNC(=O)[C@@H]3C[C@@H](O)CN3C(=O)[C@H](C(C)C)N3Cc4ccccc4C3=O)cc2)cc(C(=O)NCc2c(C)cc(C)[nH]c2=O)c1C)C1CCOCC1 [Compound 63, (2S,4R)-N-[(2-{4-[4-(3-{[(4,6-dimethyl-2-oxo-1,2-dihydropyridin-3-yl)methyl]carbamoyl}-5-[ethyl(oxan-4-yl)amino]-4-methylphenyl)phenoxy]butoxy}-4-(4-methyl-1,3-thiazol-5-yl)phenyl)methyl]-4-hydroxy-1-[(2S)-3-methyl-2-(1-oxo-2,3-dihydro-1H-isoindol-2-yl)butanoyl]pyrrolidine-2-carboxamide]	B (B = degradation between 30% and 60%)
CCN(c1cc(-c2ccc(OCCOCCOCCOCCOCCOc3cc(-c4scnc4C)ccc3CNC(=O)[C@@H]3C[C@@H](O)CN3C(=O)[C@H](C(C)C)N3Cc4ccccc4C3=O)cc2)cc(C(=O)NCc2c(C)cc(C)[nH]c2=O)c1C)C1CCOCC1 [Compound 35, (2S,4R)-N-{[2-({1-[4-(3-{[(4,6-dimethyl-2-oxo-1,2-dihydropyridin-3-yl)methyl]carbamoyl}-5-[ethyl(oxan-4-yl)amino]-4-methylphenyl)phenyl]-1,4,7,10,13-pentaoxapentadecan-15-yl}oxy)-4-(4-methyl-1,3-thiazol-5-yl)phenyl]methyl}-4-hydroxy-1-[(2S)-3-methyl-2-(1-oxo-2,3-dihydro-1H-isoindol-2-yl)butanoyl]pyrrolidine-2-carboxamide]	B (B = degradation between 30% and 60%)
CCN(c1cc(-c2ccc(OCCOCC(=O)N[C@H](C(=O)N3C[C@H](O)C[C@H]3C(=O)NCc3ccc(-c4scnc4C)cc3)C(C)(C)C)cc2)cc(C(=O)NCc2c(C)cc(C)[nH]c2=O)c1C)C1CCOCC1 [Compound 32, (2S,4R)-1-[(2S)-2-(2-{2-[4-(3-{[(4,6-dimethyl-2-oxo-1,2-dihydropyridin-3-yl)methyl]carbamoyl}-5-[ethyl(oxan-4-yl)amino]-4-methylphenyl)phenoxy]ethoxy}acetamido)-3,3-dimethylbutanoyl]-4-hydroxy-N-{[4-(4-methyl-1,3-thiazol-5-yl)phenyl]methyl}pyrrolidine-2-carboxamide]	B (B = degradation between 30% and 60%)
CCN(c1cc(-c2ccc(CCCOCCOCC(=O)N[C@H](C(=O)N3C[C@H](O)C[C@H]3C(=O)NCc3ccc(-c4scnc4C)cc3)C(C)(C)C)cc2)cc(C(=O)NCc2c(C)cc(C)[nH]c2=O)c1C)C1CCOCC1 [Compound 47, (2S,4R)-1-[(2S)-2-[2-(2-{3-[4-(3-{[(4,6-dimethyl-2-oxo-1,2-dihydropyridin-3-yl)methyl]carbamoyl}-5-[ethyl(oxan-4-yl)amino]-4-methylphenyl)phenyl]propoxy}ethoxy)acetamido]-3,3-dimethylbutanoyl]-4-hydroxy-N-{[4-(4-methyl-1,3-thiazol-5-yl)phenyl]methyl}pyrrolidine-2-carboxamide]	B (B = degradation between 30% and 60%)
CCN(c1cc(-c2ccc(CN3CCN(CCCCOCC(=O)N[C@H](C(=O)N4C[C@H](O)C[C@H]4C(=O)N[C@@H](C)c4ccc(-c5scnc5C)cc4)C(C)(C)C)CC3)cc2)cc(C(=O)NCc2c(C)cc(C)[nH]c2=O)c1C)C1CCOCC1 [Compound 117, (2S,4R)-1-((S)-2-(2-(4-(4-((3′-(((4,6-dimethyl-2-oxo-1,2-dihydropyridin-3-yl)methyl)carbamoyl)-5′-(ethyl(tetrahydro-2H-pyran-4-yl)amino)-4′-methyl-[1,1′-biphenyl]-4-yl)methyl)piperazin-1-yl)butoxy)acetamido)-3,3-dimethylbutanoyl)-4-hydroxy-N-((S)-1-(4-(4-methylthiazol-5-yl)phenyl)ethyl)pyrrolidine-2-carboxamide]	A (A = degradation more than 60%)
CCN(c1cc(-c2ccc(OCCCCOc3ccc4c(c3)C(=O)N(C(C(=O)N3C[C@H](O)C[C@H]3C(=O)N[C@@H](C)c3ccc(-c5scnc5C)cc3)C(C)C)C4)cc2)cc(C(=O)NCc2c(C)cc(C)[nH]c2=O)c1C)C1CCOCC1 (stereo partly drawn) [Compound 103, (2S,4R)-1-(2-(6-(4-((3′-(((4,6-dimethyl-2-oxo-1,2-dihydropyridin-3-yl)methyl)carbamoyl)-5′-(ethyl(tetrahydro-2H-pyran-4-yl)amino)-4′-methyl-[1,1′-biphenyl]-4-yl)oxy)butoxy)-1-oxoisoindolin-2-yl)-3-methylbutanoyl)-4-hydroxy-N-((S)-1-(4-(4-methylthiazol-5-yl)phenyl)ethyl)pyrrolidine-2-carboxamide]	B (B = degradation between 30% and 60%)
CCN(c1cc(-c2ccc(OCCOCCOc3cc(-c4scnc4C)ccc3CNC(=O)[C@@H]3C[C@@H](O)CN3C(=O)[C@H](C(C)C)N3Cc4ccccc4C3=O)cc2)cc(C(=O)NCc2c(C)cc(C)[nH]c2=O)c1C)C1CCOCC1 [Compound 38, (2S,4R)-N-{[2-(2-{2-[4-(3-{[(4,6-dimethyl-2-oxo-1,2-dihydropyridin-3-yl)methyl]carbamoyl}-5-[ethyl(oxan-4-yl)amino]-4-methylphenyl)phenoxy]ethoxy}ethoxy)-4-(4-methyl-1,3-thiazol-5-yl)phenyl]methyl}-4-hydroxy-1-[(2S)-3-methyl-2-(1-oxo-2,3-dihydro-1H-isoindol-2-yl)butanoyl]pyrrolidine-2-carboxamide]	B (B = degradation between 30% and 60%)
CCN(c1cc(-c2ccc(OCCOCCOCCNc3cccc4c3C(=O)N(C3CCC(=O)NC3=O)C4=O)cc2)cc(C(=O)NCc2c(C)cc(C)[nH]c2=O)c1C)C1CCOCC1 (stereo not shown) [Compound 33, N-[(4,6-dimethyl-2-oxo-1,2-dihydropyridin-3-yl)methyl]-5-(4-{2-[2-(2-{[2-(2,6-dioxopiperidin-3-yl)-1,3-dioxo-2,3-dihydro-1H-isoindol-4-yl]amino}ethoxy)ethoxy]ethoxy}phenyl)-3-[ethyl(oxan-4-yl)amino]-2-methylbenzamide]	B (B = degradation between 30% and 60%)
CCN(c1cc(-c2ccc(COCCOc3ccc4c(c3)C(=O)N([C@H](C(=O)N3C[C@H](O)C[C@H]3C(=O)N[C@@H](C)c3ccc(-c5scnc5C)cc3)C(C)C)C4)cc2)cc(C(=O)NCc2c(C)cc(C)[nH]c2=O)c1C)C1CCOCC1 [Compound 99, (2S,4R)-1-((S)-2-(6-(2-((3′-((4,6-dimethyl-2-oxo-1,2-dihydropyridin-3-yl)methylcarbamoyl)-5′-(ethyl(tetrahydro-2H-pyran-4-yl)amino)-4′-methylbiphenyl-4-yl)methoxy)ethoxy)-1-oxoisoindolin-2-yl)-3-methylbutanoyl)-4-hydroxy-N—((S)-1-(4-(4-methylthiazol-5-yl)phenyl)ethyl)pyrrolidine-2-carboxamide]	A (A = degradation more than 60%)
CCN(c1cc(-c2ccc(OCCOCCOCCOCCOCCOCCNc3cccc4c3C(=O)N(C3CCC(=O)NC3=O)C4=O)cc2)cc(C(=O)NCc2c(C)cc(C)[nH]c2=O)c1C)C1CCOCC1 (stereo not shown) [Compound 19, N-[(4,6-dimethyl-2-oxo-1,2-dihydropyridin-3-yl)methyl]-5-[4-({1-[2-(2,6-dioxopiperidin-3-yl)-1,3-dioxo-2,3-dihydro-1H-isoindol-4-yl]-4,7,10,13,16-pentaoxa-1-azaoctadecan-18-yl}oxy)phenyl]-3-[ethyl(oxan-4-yl)amino]-2-methylbenzamide]	B (B = degradation between 30% and 60%)
CCN(c1cc(-c2ccc(OCCOCc3ccc4c(c3)C(=O)N([C@H](C(=O)N3C[C@H](O)C[C@H]3C(=O)N[C@@H](C)c3ccc(-c5scnc5C)cc3)C(C)C)C4)cc2)cc(C(=O)NCc2c(C)cc(C)[nH]c2=O)c1C)C1CCOCC1 [Compound 108, (2S,4R)-1-((S)-2-(6-((2-((3′-(((4,6-dimethyl-2-oxo-1,2-dihydropyridin-3-yl)methyl)carbamoyl)-5′-(ethyl(tetrahydro-2H-pyran-4-yl)amino)-4′-methyl-[1,1′-biphenyl]-4-yl)oxy)ethoxy)methyl)-1-oxoisoindolin-2-yl)-3-methylbutanoyl)-4-hydroxy-N-((S)-1-(4-(4-methylthiazol-5-yl)phenyl)ethyl)pyrrolidine-2-carboxamide]	B (B = degradation between 30% and 60%)
CCN(c1cc(-c2ccc(OCCCCCOCC(=O)N[C@H](C(=O)N3C[C@H](O)C[C@H]3C(=O)N[C@@H](C)c3ccc(-c4scnc4C)cc3)C(C)(C)C)cc2)cc(C(=O)NCc2c(C)cc(C)[nH]c2=O)c1C)C1CCOCC1 [Compound 94, (2S,4R)-1-((S)-2-(2-((5-((3′-(((4,6-dimethyl-2-oxo-1,2-dihydropyridin-3-yl)methyl)carbamoyl)-5′-(ethyl(tetrahydro-2H-pyran-4-yl)amino)-4′-methyl-[1,1′-biphenyl]-4-yl)oxy)pentyl)oxy)acetamido)-3,3-dimethylbutanoyl)-4-hydroxy-N-((S)-1-(4-(4-methylthiazol-5-yl)phenyl)ethyl)pyrrolidine-2-carboxamide]	A (A = degradation more than 60%)
CCN(c1cc(-c2ccc(OCCOCCOCCOCC(=O)N[C@H](C(=O)N3C[C@H](O)C[C@H]3C(=O)NCc3ccc(-c4scnc4C)cc3)C(C)(C)C)cc2)cc(C(=O)NCc2c(C)cc(C)[nH]c2=O)c1C)C1CCOCC1 [Compound 13, (2S,4R)-1-[(2S)-2-{1-[4-(3-{[(4,6-dimethyl-2-oxo-1,2-dihydropyridin-3-yl)methyl]carbamoyl}-5-[ethyl(oxan-4-yl)amino]-4-methylphenyl)phenyl]-1,4,7,10-tetraoxadodecan-12-amido}-3,3-dimethylbutanoyl]-4-hydroxy-N-{[4-(4-methyl-1,3-thiazol-5-yl)phenyl]methyl}pyrrolidine-2-carboxamide]	B (B = degradation between 30% and 60%)
